Measurements reported in ChEMBL document CHEMBL1201862, “PubChem BioAssay data set” (2004).
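All cell lines were grown in 96-well plates and treated with compound for 48 hours. GI50: concentration for 50% inhibition of growth.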 The source made the active and inactive calls. Rule as the data show it: active = GI50 up to about 1.1 µM and inactive = higher.

Legend:
Experiment in all cases: inhibition of tumour cell growth, NCI panel, 48 h
HT-29 = system: HT-29
NCI/ADR-RES = system: NCI/ADR-RES
HOP-92 = system: HOP-92
NCI-H23 = system: NCI-H23
K562 = system: K562
ACHN = system: ACHN
A498 = system: A498
OVCAR-5 = system: OVCAR-5
SW-620 = system: SW-620
SK-OV-3 = system: SK-OV-3
LOX IMVI = system: LOX IMVI
MDA-MB-231 = system: MDA-MB-231
COLO 205 = system: COLO 205
MOLT-4 = system: MOLT-4
HCT-116 = system: HCT-116
SNB-19 = system: SNB-19
M14 = system: M14
U-251 = system: U-251
SR = system: SR

Measured: GI50

C[C@H]1CC[C@@H]2[C@@H](C)C[C@H]3[C@@H]4C(C)(C)OC(=O)[C@]4(C)C(=O)[C@@]23C1=O
inactive: HT-29 > 100 µM | NCI/ADR-RES > 100 µM | HOP-92 85.5 µM | NCI-H23 > 100 µM | K562 > 100 µM | ACHN > 100 µM | A498 > 100 µM | OVCAR-5 > 100 µM | SW-620 > 100 µM | SK-OV-3 > 100 µM | LOX IMVI > 100 µM | MDA-MB-231 42.5 µM | COLO 205 > 100 µM | MOLT-4 > 100 µM | HCT-116 > 100 µM | SNB-19 > 100 µM | M14 > 100 µM

NCCCCN(CCCN)Cc1ccc2ccccc2c1
inactive: HT-29 23.3 µM | U-251 59 µM | NCI/ADR-RES > 100 µM | HOP-92 29 µM | NCI-H23 25.3 µM | K562 > 100 µM | ACHN 22.8 µM | A498 20.7 µM | OVCAR-5 28.8 µM | SW-620 > 100 µM | SK-OV-3 96.4 µM | LOX IMVI 29.2 µM | MDA-MB-231 32.4 µM | COLO 205 35.2 µM | MOLT-4 34.8 µM | HCT-116 36.7 µM | SNB-19 12.9 µM | M14 57 µM

O=C(CCCc1ccccn1)c1ccccc1
inactive: HT-29 > 100 µM | U-251 > 100 µM | NCI/ADR-RES > 100 µM | HOP-92 > 100 µM | NCI-H23 > 100 µM | K562 > 100 µM | ACHN > 100 µM | A498 > 100 µM | OVCAR-5 > 100 µM | SW-620 > 100 µM | SK-OV-3 > 100 µM | LOX IMVI > 100 µM | MDA-MB-231 > 100 µM | COLO 205 > 100 µM | MOLT-4 > 100 µM | HCT-116 > 100 µM | SNB-19 > 100 µM | M14 > 100 µM

COc1ccc(CCc2nccn2C)cc1OC
inactive: HT-29 > 100 µM | NCI/ADR-RES > 100 µM | HOP-92 > 100 µM | NCI-H23 > 100 µM | K562 > 100 µM | ACHN > 100 µM | A498 > 100 µM | SR > 100 µM | OVCAR-5 > 100 µM | SW-620 > 100 µM | SK-OV-3 > 100 µM | LOX IMVI > 100 µM | COLO 205 > 100 µM | MOLT-4 > 100 µM | HCT-116 > 100 µM | SNB-19 > 100 µM | M14 > 100 µM

N#CCCC1(CCC#N)CCCCCCC(CCC#N)(CCC#N)C(=O)C1=O
inactive: HT-29 > 100 µM | U-251 > 100 µM | NCI/ADR-RES > 100 µM | HOP-92 > 100 µM | NCI-H23 > 100 µM | K562 > 100 µM | ACHN > 100 µM | A498 50 µM | SR > 100 µM | OVCAR-5 > 100 µM | SW-620 > 100 µM | SK-OV-3 > 100 µM | LOX IMVI > 100 µM | COLO 205 36.8 µM | HCT-116 > 100 µM | SNB-19 > 100 µM | M14 > 100 µM

C/C=C(/C)c1cnc(CC(C)C)c(=O)[nH]1
inactive: HT-29 > 100 µM | U-251 > 100 µM | HOP-92 > 100 µM | NCI-H23 > 100 µM | K562 > 100 µM | ACHN > 100 µM | A498 > 100 µM | SR > 100 µM | OVCAR-5 > 100 µM | SW-620 > 100 µM | SK-OV-3 > 100 µM | LOX IMVI > 100 µM | MDA-MB-231 > 100 µM | COLO 205 > 100 µM | MOLT-4 > 100 µM | HCT-116 > 100 µM | SNB-19 > 100 µM

C[C@@H]1OC(=O)C[C@H]2CC(=O)N(CCC3CN(C(=O)OCc4ccccc4)c4ccccc43)C[C@@H]21 (some centres undefined)
inactive: HT-29 > 100 µM | U-251 > 100 µM | NCI/ADR-RES > 100 µM | HOP-92 > 100 µM | NCI-H23 > 100 µM | K562 > 100 µM | ACHN > 100 µM | A498 > 100 µM | OVCAR-5 > 100 µM | SW-620 > 100 µM | SK-OV-3 > 100 µM | MDA-MB-231 > 100 µM | COLO 205 > 100 µM | MOLT-4 > 100 µM | HCT-116 > 100 µM | SNB-19 > 100 µM | M14 > 100 µM

CCOC(=O)/C(C(=O)Nc1cccc(Cl)c1)=C(/N)N1CCCC1
inactive: HT-29 > 100 µM | U-251 > 100 µM | NCI/ADR-RES > 100 µM | NCI-H23 > 100 µM | K562 > 100 µM | ACHN > 100 µM | A498 > 100 µM | OVCAR-5 > 100 µM | SW-620 > 100 µM | SK-OV-3 > 100 µM | LOX IMVI > 100 µM | MDA-MB-231 > 100 µM | COLO 205 > 100 µM | MOLT-4 > 100 µM | HCT-116 > 100 µM | SNB-19 > 100 µM | M14 > 100 µM

O=C1c2ccccc2C(=O)c2c1ccc(C1C(=O)c3ccccc3C1=O)c2-c1c(C2C(=O)c3ccccc3C2=O)ccc2c1C(=O)c1ccccc1C2=O
inactive: HT-29 > 100 µM | U-251 > 100 µM | NCI/ADR-RES > 100 µM | HOP-92 > 100 µM | K562 36.6 µM | ACHN > 100 µM | A498 > 100 µM | OVCAR-5 > 100 µM | SW-620 15.3 µM | SK-OV-3 > 100 µM | LOX IMVI 74.3 µM | MDA-MB-231 47.3 µM | COLO 205 > 100 µM | MOLT-4 19 µM | HCT-116 > 100 µM | SNB-19 > 100 µM | M14 > 100 µM

CSc1ccc(/C=C2\N=C(c3ccccc3)N(NC(=O)c3c(Cl)c(Cl)c(Cl)c(Cl)c3-c3nc4ccccc4[nH]3)C2=O)cc1
inactive: HT-29 36.2 µM | NCI/ADR-RES 25.1 µM | HOP-92 17.5 µM | NCI-H23 24.7 µM | K562 5.5 µM | ACHN 28.8 µM | A498 30.8 µM | SR 2.22 µM | OVCAR-5 81.7 µM | SW-620 29.9 µM | SK-OV-3 5.48 µM | LOX IMVI 30.9 µM | COLO 205 22.4 µM | MOLT-4 20.7 µM | HCT-116 25.2 µM | SNB-19 48.5 µM | M14 29.6 µM

Cc1ccc(-c2c(C#N)c(-c3ccc(Cl)cc3)c(C#N)c(=O)n2NS(=O)(=O)c2ccccc2)cc1
inactive: HT-29 > 100 µM | U-251 74.8 µM | NCI/ADR-RES 26.9 µM | HOP-92 25.2 µM | K562 88.1 µM | ACHN 46.9 µM | A498 86.7 µM | OVCAR-5 > 100 µM | SW-620 > 100 µM | SK-OV-3 > 100 µM | LOX IMVI 42.3 µM | MDA-MB-231 > 100 µM | COLO 205 > 100 µM | MOLT-4 55.2 µM | HCT-116 59 µM | SNB-19 80.7 µM | M14 > 100 µM
